The text below walks through data of patent US8501804B2, “Bicyclic compound” (Takeda Pharmaceutical Company Limited, priority 2008, dated 2013).

The target in experiment [1] is T1, human ACC1 (Homo sapiens, UniProt Q13085).
T1 construct: His6 (from vector pFAST-BacHTc); made in house; host or cells: SF-9 insect cells, recombinant baculovirus BAC-ACC1
The experiment is described as follows: ACC1 inhibitory activity (malachite green). It counts as biochemical. To be noted: test compound 10 μM; for inhibition at 10 µM: read-out: ACC1 10 μM inhibitory rate (%). As to the method:
The ACC1 inhibitory action of the compound of the present invention was evaluated by the following method.
(1) Cloning of Human ACC1 Gene and Preparation of Recombinant Baculovirus
Human ACC1 gene was cloned by PCR using a human liver cDNA library (Clontech) as a template and Primer 1 and Primer 2 shown below. Primer 1 and Primer 2 were prepared by adding SalI, NotI restriction enzyme recognition sequences based on the information of the base sequence of human ACC1 gene (Genbank Accession U19822).
PCR was performed using Pyrobest DNA polymerase (TAKARA BIO INC.). The obtained PCR product was cloned to pT7 Blue vector (Novagen) and, after confirmation of the base sequence, digested with restriction enzymes SalI and NotI. The obtained DNA fragment was inserted into pFAST-BacHTc (Invitrogen) digested with restriction enzymes SalI and NotI to give expression plasmid ACC1/pFAST-BacHTc.
Using the expression plasmid ACC1/pFAST-BacHTc and BAC-TO-BAC Baculovirus Expression System (Invitrogen), virus stock BAC-ACC1 of recombinant Baculovirus was prepared.
(2) Preparation of ACC1 Protein
SF-9 cells (Invitrogen) were inoculated to a medium (1 L) for insect cells (Sf-900IISFM medium (Invitrogen) containing 10% fetal bovine serum (Trace), 50 mg/L Gentamicin (Invitrogen), 0.1% Pluronic F-68 (Invitrogen)) at 1×10^6 cells/mL, and cultured with shaking in 2 L meyer at 27° C., 100 rpm.
After 24 hr of the culture, 10 mL of recombinant Baculovirus BAC-ACC1 was added, and the cells were cultured for 3 days. The culture medium was centrifuged at 1000×g for 5 min to give virus-infected cells. The cells were washed with phosphate buffered saline (Invitrogen) and centrifuged under the same conditions. The obtained cells were cryopreserved at −80° C.
The cryopreserved cells were thawed in ice and suspended in 100 mL of 25 mM HEPES buffer (pH 7.5) containing 10% Glycerol, 0.13 M NaCl, 1 mM EDTA, 25 mM Sodium […] and 1 mM Sodium Orthovanadate, and supplemented with Complete Protease Inhibitor (Nippon Boehringer Ingelheim Co., Ltd.). The obtained suspension was homogenized three times in a polytron homogenizer (Kinematica) at 20,000 rpm for 30 sec. The obtained cell disruption solution was clarified by centrifugation at 185700×g for 50 min, and filtered through a 0.45 μm filter. The filtrate was passed through a column packed with 12 ml of Ni-NTA Super Flow Gel (QUIAGEN) at a flow rate of about 5 mL/min. The column was washed with buffer A (50 mM HEPES (pH 7.5) containing 0.3 M NaCl), further washed with buffer A containing 20 mM Imidazole, and eluted with buffer A containing 100 mM Imidazole. The eluate was concentrated with Vivaspin 20 (Vivascience) with a molecular weight cut off of 30K. The obtained concentrate was dialyzed against Sephadex G-25 (Amersham Biosciences, 358 mL) equilibrated with 50 mM HEPES (pH 7.5) containing 10 mM MgCl2, 2 mM Dithiothreitol, 10 mM Tripotassium Citrate and 0.3 M NaCl. The inner dialysate was concentrated with Vivaspin 20 (Vivascience) with molecular weight cut off of 30K, and concentrate was filtered through a 0.22 μm filter to give ACC1. The obtained ACC1 was cryopreserved at −80° C.
(3) Measurement of ACC1 Inhibitory Activity
ACC1 (0.93 mg/ml) obtained in the above-mentioned (2) was diluted with an enzyme reaction buffer (50 mM HEPES (pH 7.5), 10 mM MgCl2, 10 mM Tripotassium Citrate, 2 mM Dithiothreitol, 0.75 mg/ml Fatty acid free BSA) to a concentration of 8 μg/ml, and the mixture was added to each well of a 384 well assay plate (Nunc 265196) by 10 μl. A test compound was dissolved in dimethyl sulfoxide (DMSO) and the mixture was diluted with an enzyme reaction buffer and the resulting solution (5 μl) was added to each well. The mixture was incubated at 30° C. for 60 min. Then, a substrate solution (50 mM KHCO3, 200 μM ATP, 200 μM Acetyl-CoA, 5 μl) was added to each well, and the mixture was reacted at 30° C. for 20 min (test compound addition group). […]

The target in experiment [2] is T2, human ACC2 (Nd) (Homo sapiens, UniProt O00763).
T2 construct: His6 (from vector pFAST-BacHTa); made in house; host or cells: SF-9 insect cells, recombinant baculovirus BAC-ACC2 (Nd)
Nature of the experiment: ACC2 inhibitory activity (malachite green). In kind it is biochemical. Conditions: test compound 10 μM; for inhibition at 10 µM: read-out: ACC2 10 μM inhibitory rate (%). As to the method: The ACC2 inhibitory action of the compound of the present invention was evaluated by the following method.
(1) Cloning of Human ACC2 Gene and Preparation of Recombinant Baculovirus
Human ACC2 gene was cloned by PCR using a human skeletal muscle cDNA library (Clontech) as a template and Primer 1 and Primer 2 shown below. Primer 1 and Primer 2 were prepared by adding SalI, XbaI restriction enzyme recognition sequences based on the information of the base sequence of human ACC2 gene (Genbank Accession U89344).
PCR was performed using Pyrobest DNA polymerase (TAKARA BIO INC.). The obtained PCR product was cloned to pT7 Blue vector (Novagen) and, after confirmation of the base sequence, digested with restriction enzymes SalI and XbaI. The obtained DNA fragment was inserted into pFAST-BacHTa (Invitrogen) digested with restriction enzymes SalI and XbaI to give expression plasmid ACC2/pFAST-BacHTa.
A plasmid for expression of ACC2 without a mitochondrial targeting sequence was prepared by PCR using the expression plasmid as a template, and Primer 3 (SalI restriction enzyme recognition sequence was added) and Primer 4 prepared by reference to the information of human ACC2 gene base sequence (Genbank Accession U89344).
PCR was performed using Pyrobest-DNA polymerase (TAKARA BIO INC.). The obtained PCR product was cloned to pT7 Blue vector (Novagen) and, after confirmation of the base sequence, digested with restriction enzymes SalI and AflII. The obtained DNA fragment was inserted into ACC2/pFAST-BacHTa digested with restriction enzymes SalI and AflII to give expression plasmid ACC2mito7/pFAST-BacHTa.
Using the expression plasmid ACC2mito7/pFAST-BacHTa and BAC-TO-BAC Baculovirus Expression System (Invitrogen), virus stock BAC-ACC2 of recombinant Baculovirus (N terminal deleted (hereinafter Nd)) was prepared.
(2) Preparation of ACC2 (Nd) Protein
SF-9 cells (Invitrogen) were inoculated to a medium (2 L) for insect cells (Sf-900IISFM medium (Invitrogen) containing 10% fetal bovine serum (Trace), 50 mg/L Gentamicin (Invitrogen), 0.1% Pluronic F-68 (Invitrogen)) at 0.5×10^6 cells/mL, and cultured with shaking in Wave Bioreactor (Wave) at 27° C., 20 rpm, rocking angle 6°, oxygen concentration 30%.
On day 4 of the culture, 3 L of the medium for insect cells was added, the rocking angle was set to 8°, and the cells were cultured. On day 5 of the culture, 100 ml of recombinant Baculovirus BAC-ACC2 (Nd) was added, 5 L of the medium for insect cells was further added, the rocking angle was set to 11°, and the cells were cultured for 3 days. The culture medium was centrifuged at 1000×g for 10 min to give virus-infected cells. The cells were washed with phosphate buffered saline (Invitrogen) and centrifuged under the same conditions. The obtained cells were cryopreserved at −80° C.
The cryopreserved cells were thawed in ice and suspended in 900 ml of 25 mM HEPES buffer (pH 7.5) containing 10% Glycerol, 0.13 M NaCl, 1 mM EDTA, 25 mM Sodium β-Glycerophosphate and 1 mM Sodium Orthovanadate, and supplemented with Complete Protease Inhibitor (Nippon Boehringer Ingelheim Co., Ltd.). The obtained suspension was homogenized three times in a polytron homogenizer (Kinematica) at 20,000 rpm for 30 sec. The obtained cell disruption solution was clarified by centrifugation at 31000×g for 60 min, and filtered through a 0.45 μm filter. The filtrate was passed through a column packed with 60 mL of Ni-NTA Super Flow Gel (QUIAGEN) at a flow rate of about 5 mL/min. The column was washed with buffer A (50 mM HEPES (pH 7.5) containing 0.3 M NaCl), further washed with buffer A containing 20 mM Imidazole, and eluted with buffer A containing 100 mM Imidazole. The eluate was concentrated with Vivaspin 20 (Vivascience) with a molecular weight cut off of 30K. The obtained concentrate was dialyzed against 50 mM HEPES (pH 7.5) containing 10 mM MgCl2, 2 mM Dithiothreitol, 10 mM Tripotassium Citrate and 0.3 M NaCl. The inner dialysate was filtered through a 0.22 μm filter to give ACC2 (Nd). […]

T2 sequence (O00763 117-2458 limits assumed): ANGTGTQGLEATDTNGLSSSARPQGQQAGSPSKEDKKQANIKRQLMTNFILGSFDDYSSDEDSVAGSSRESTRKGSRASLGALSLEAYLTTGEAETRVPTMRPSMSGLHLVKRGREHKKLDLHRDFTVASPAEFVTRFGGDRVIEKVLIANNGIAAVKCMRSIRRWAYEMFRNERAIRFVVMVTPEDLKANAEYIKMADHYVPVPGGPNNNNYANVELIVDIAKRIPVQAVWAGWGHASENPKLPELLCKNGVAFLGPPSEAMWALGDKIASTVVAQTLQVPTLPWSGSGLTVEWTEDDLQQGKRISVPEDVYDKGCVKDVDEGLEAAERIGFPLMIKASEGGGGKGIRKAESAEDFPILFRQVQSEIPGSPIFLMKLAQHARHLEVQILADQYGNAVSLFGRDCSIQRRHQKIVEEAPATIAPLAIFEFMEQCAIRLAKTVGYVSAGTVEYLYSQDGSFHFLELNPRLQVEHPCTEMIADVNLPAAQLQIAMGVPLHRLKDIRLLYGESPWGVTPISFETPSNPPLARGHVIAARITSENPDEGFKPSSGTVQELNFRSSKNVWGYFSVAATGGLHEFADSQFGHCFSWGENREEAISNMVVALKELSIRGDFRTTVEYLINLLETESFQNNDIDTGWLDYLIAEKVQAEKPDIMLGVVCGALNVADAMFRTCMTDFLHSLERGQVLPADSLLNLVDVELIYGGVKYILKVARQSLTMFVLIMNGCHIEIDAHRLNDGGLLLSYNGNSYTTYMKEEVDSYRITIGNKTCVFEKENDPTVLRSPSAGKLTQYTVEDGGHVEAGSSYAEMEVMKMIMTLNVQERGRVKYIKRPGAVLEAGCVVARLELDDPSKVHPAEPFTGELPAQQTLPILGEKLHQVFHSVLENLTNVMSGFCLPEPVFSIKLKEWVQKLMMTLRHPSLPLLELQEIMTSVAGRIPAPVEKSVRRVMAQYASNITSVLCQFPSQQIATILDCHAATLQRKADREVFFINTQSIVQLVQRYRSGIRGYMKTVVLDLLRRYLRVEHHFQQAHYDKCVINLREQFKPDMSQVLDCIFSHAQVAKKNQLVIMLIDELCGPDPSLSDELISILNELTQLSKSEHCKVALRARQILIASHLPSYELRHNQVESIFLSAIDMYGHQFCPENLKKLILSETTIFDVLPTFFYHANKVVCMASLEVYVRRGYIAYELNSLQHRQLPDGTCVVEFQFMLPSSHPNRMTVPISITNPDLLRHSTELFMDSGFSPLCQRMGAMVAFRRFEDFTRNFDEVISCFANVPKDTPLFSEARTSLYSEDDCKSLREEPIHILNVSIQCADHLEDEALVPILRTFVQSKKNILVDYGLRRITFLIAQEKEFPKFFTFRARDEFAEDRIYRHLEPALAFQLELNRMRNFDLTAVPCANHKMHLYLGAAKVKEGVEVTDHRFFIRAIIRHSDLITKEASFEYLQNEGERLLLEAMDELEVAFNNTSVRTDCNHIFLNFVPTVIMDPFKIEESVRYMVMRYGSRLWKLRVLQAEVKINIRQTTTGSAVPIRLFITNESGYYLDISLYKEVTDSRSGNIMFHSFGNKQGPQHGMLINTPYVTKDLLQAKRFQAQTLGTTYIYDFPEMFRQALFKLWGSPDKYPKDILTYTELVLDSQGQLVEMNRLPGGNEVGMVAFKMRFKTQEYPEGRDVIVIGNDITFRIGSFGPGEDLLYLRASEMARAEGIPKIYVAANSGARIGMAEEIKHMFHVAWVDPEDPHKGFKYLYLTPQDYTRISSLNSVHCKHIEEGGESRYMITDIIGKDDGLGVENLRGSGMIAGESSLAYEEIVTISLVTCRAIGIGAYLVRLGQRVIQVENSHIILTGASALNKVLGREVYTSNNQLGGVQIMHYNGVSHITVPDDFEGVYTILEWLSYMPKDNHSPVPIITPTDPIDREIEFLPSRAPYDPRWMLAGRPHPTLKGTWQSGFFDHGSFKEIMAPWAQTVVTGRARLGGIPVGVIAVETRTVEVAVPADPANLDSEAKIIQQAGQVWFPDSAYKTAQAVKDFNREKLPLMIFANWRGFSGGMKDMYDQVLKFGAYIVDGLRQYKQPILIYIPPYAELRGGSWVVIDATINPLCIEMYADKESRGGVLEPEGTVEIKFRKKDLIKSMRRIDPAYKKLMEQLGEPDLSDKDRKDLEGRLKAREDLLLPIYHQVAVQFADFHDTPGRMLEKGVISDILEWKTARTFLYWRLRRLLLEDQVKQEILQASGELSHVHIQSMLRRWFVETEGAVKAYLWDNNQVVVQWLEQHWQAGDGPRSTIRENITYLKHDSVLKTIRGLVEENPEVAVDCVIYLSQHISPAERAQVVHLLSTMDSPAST

Turning to `CCOc1ccc(OCc2ccc3sc(C(C)NC(C)=O)nc3c2)cc1` (stereo not drawn) [Example 37, N-(1-{5-[(4-ethoxyphenoxy)methyl]-1,3-benzothiazol-2-30 yl}ethyl)acetamide], the inhibition at 10 µM in experiment [1] is -4%; in experiment [2] it was 77%.

As to `CC(=O)N[C@@H](C)[C@@H]1Cc2ccc(OCc3cnc(OCC4CC4)cc3F)cc2O1` [Example 142, N-{(1S)-1-[(2S)-6-{[6-(cyclopropylmethoxy)-4-fluoropyridin-3-yl]methoxy}-2,3-dihydro-1-benzofuran-2-yl]ethyl}acetamide], the inhibition at 10 µM was 42% in experiment [1] and 74% in experiment [2].

For the compound `CC(=O)NC(C)c1cc2cc(OCc3ccc(OCC4CC4)nc3F)ccc2o1` (stereo not drawn) [Example 153, N-[1-(5-{[6-(cyclopropylmethoxy)-2-fluoropyridin-3-yl]methoxy}-1-benzofuran-2-yl)ethyl]acetamide], the inhibition at 10 µM in experiment [1] stood at 24%; in experiment [2] it was 70%.

`CC(=O)NC(C)c1cc2cc(OCc3ccc(OCC4CC4)cc3F)ccc2o1` (stereo not drawn) [Example 116 (retention time longer), N-[1-(5-{[4-(cyclopropylmethoxy)-2-fluorobenzyl]oxy}-1-benzofuran-2-yl)ethyl]acetamide]: the “ACC1 10 μM inhibitory rate (%)” value in experiment [1] came to 24%. In addition, in experiment [2], the “ACC2 10 μM inhibitory rate (%)” value turned out to be 63%.

In the case of `CC(=O)NC(C)c1cc2cc(OCc3ccc(OCC4CC4)cc3F)ccc2o1` (stereo not drawn) [Example 110, N-[1-(5-{[4-(cyclopropylmethoxy)-2-fluorobenzyl]oxy}-1-benzofuran-2-yl)ethyl]acetamide], the inhibition at 10 µM in experiment [1] was 40%; in experiment [2], 78%.

Consider `CC(=O)NC(C)c1cc2ccc(CCc3ccc(OCC4CC4)cc3)cc2o1` (stereo not drawn) [Example 191 (retention time shorter), N-[1-(6-{2-[4-(cyclopropylmethoxy)phenyl]ethyl}-1-benzofuran-2-yl)ethyl]acetamide], for which the “ACC1 10 μM inhibitory rate (%)” value in experiment [1] is listed as 20%. Also, the “ACC2 10 μM inhibitory rate (%)” value in experiment [2] amounted to 75%.

Take `CC(=O)N[C@@H](C)[C@@H]1Cc2ccc(CCc3ccc(OCC4CC4)cc3)cc2O1.CC(=O)N[C@H](C)[C@H]1Cc2ccc(CCc3ccc(OCC4CC4)cc3)cc2O1` (mixture of isomers) [Example 130 (retention time longer), N-{(1R)-1-[(2R)-6-{2-[4-(cyclopropylmethoxy)phenyl]ethyl}-2,3-dihydro-1-benzofuran-2-yl]ethyl}acetamide and N-{(1S)-1-[(2S)-6-{2-[4-(cyclopropylmethoxy)phenyl]ethyl}-2,3-dihydro-1-benzofuran-2-yl]ethyl}acetamide]: the “ACC1 10 μM inhibitory rate (%)” value in experiment [1] amounted to 25%. The “ACC2 10 μM inhibitory rate (%)” value in experiment [2] was 62%.

As to `CCOc1ccc(COc2ccc3oc(C(C)NC(C)=O)cc3c2)cc1` (stereo not drawn) [Example 18, N-(1-{5-[(4-ethoxybenzyl)oxy]-1-benzofuran-2-yl}ethyl)acetamide], the inhibition at 10 µM in experiment [1] was found to be 15%; in experiment [2] it was 85%.

Consider `CCOc1ccc(COc2ccc3cc(C(C)NC(C)=O)oc3c2)cc1Br` (stereo not drawn) [Example 175, N-(1-{6-[(3-bromo-4-ethoxybenzyl)oxy]-1-benzofuran-2-yl}ethyl)acetamide], for which the inhibition at 10 µM came out at 15% in experiment [1] and 74% in experiment [2].

On to `CC(=O)NC(C)c1coc2cc(OCc3ccc(OCC4CC4)nc3F)ccc12` (stereo not drawn) [Example 164, N-[1-(6-{[6-(cyclopropylmethoxy)-2-fluoropyridin-3-yl]methoxy}-1-benzofuran-3-yl)ethyl]acetamide], for which the inhibition at 10 µM in experiment [1] is 50%; in experiment [2] it was 93%.

Turning to `CCOc1ccc(CCc2cc3oc(C(C)NC(C)=O)cc3cn2)cc1` (stereo not drawn) [Example 135, N-(1-{6-[2-(4-ethoxyphenyl)ethyl]furo[3,2-c]pyridin-2-yl}ethyl)acetamide], the inhibition at 10 µM was 14% in experiment [1] and 81% in experiment [2].

Turning to `CC(=O)NC(C)c1cc2cc(OCc3ccc(OCC4CC4)cc3)ccc2o1` (stereo not drawn) [Example 132 (retention time longer), N-[1-(5-{[4-(cyclopropylmethoxy)benzyl]oxy}-1-benzofuran-2-yl)ethyl]acetamide], the inhibition at 10 µM in experiment [1] turned out to be 46%; in experiment [2], 91%.
